The text below walks through data of US20230405157A1, “MELANOCORTIN TYPE 2 RECEPTOR (MC2R) TARGETED THERAPEUTICS AND USES THEREOF” (Radionetics Oncology, Inc., priority 2022, published 2023).

pKi: −log10 of the molar value. Where only a bound is given, the exact number is not on record here.

The target of the assay is T1, human MC2R (Homo sapiens, UniProt Q01718).
T1 construct: host or cells: CellSensor CRE-bla CHO-K1 cells
In words: Inhibition of binding of ACTH in human MC2R-containing membranes (SPA radioligand competition). To be noted: competition with 0.2 nM [125I]-TYR23]-ACTH (1-39), membranes of CHO-K1 cells expressing hMC2 receptor; read-out: hMC2 membrane binding. On the procedure:
Crude membrane fractions are prepared from CellSensor CRE-blaCHO-K1 cells stably expressing functional hMC2 receptor (ThermoFisher #K1483). […] Cells were collected and washed in Dulbecco's phosphate buffered saline (Corning #21-031-CV). […] The membrane fraction is separated from cell debris and collected in membrane preparation buffer, flash frozen in liquid nitrogen and stored at −80° C. […] Briefly, membranes from cells expressing the human MC2R were incubated with SPA beads (PerkinElmer #RPNQ0001) in binding assay buffer [50 mM HEPES (Biopioneer #C0113), 5 mM MgCl2 (Sigma #M8266), 1 mM CaCl2) (Fisher Scientific #BP510), 0.2% BSA (Fisher Scientific #BP1600), and protease inhibitors (Pierce #A32963); pH 7.4]. […] All data manipulations to determine the Kivalues were performed using GraphPad v8 (GraphPad, San Diego CA)
A general note: Loss of bound radioactivity is the signal in a displacement assay; it reports binding, not function.

T1 sequence (Q01718 whole entry): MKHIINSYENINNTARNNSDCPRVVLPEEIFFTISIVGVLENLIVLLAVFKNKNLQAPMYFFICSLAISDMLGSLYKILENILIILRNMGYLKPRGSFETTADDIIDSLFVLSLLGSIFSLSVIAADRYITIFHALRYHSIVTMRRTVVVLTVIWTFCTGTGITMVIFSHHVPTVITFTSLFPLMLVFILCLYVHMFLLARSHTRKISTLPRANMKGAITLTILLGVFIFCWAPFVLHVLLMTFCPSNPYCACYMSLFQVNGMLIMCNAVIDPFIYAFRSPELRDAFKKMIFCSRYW
T1 sequence (Q8TCY5 whole entry partner): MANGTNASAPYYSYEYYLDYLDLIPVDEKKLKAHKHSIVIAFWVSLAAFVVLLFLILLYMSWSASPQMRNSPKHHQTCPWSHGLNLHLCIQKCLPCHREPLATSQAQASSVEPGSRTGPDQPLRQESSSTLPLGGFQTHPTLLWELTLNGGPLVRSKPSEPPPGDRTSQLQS

`CCOc1ccccc1-c1ccc(N2CCN(C(=O)c3ccc(Cl)cc3C(F)F)C[C@H]2CC)c(C(=O)NC2CCN(CCCOc3cc(NCCOCCNC(=O)CN4CCN(CC(=O)O)CCN(CC(=O)O)CCN(CC(=O)O)CC4)cc(C(=O)O)c3)C2)n1` (stereo in doubt) [Compound 13, 2,2′,2″-(10-(2-((2-(2-((3-carboxy-5-(3-((R)-3-(3-((R)-4-(4-chloro-2-(difluoromethyl)benzoyl)-2-ethylpiperazin-1-yl)-6-(2-ethoxyphenyl)picolinamido)pyrrolidin-1-yl)propoxy)phenyl)amino)ethoxy)ethyl)amino)-2-oxoethyl)-1,4,7,10-tetraazacyclododecane-1,4,7-triyl)triacetic acid]: the pKi is more than 8.00.
For the compound “2,2′,2″-(10-((R)-8-amino-1-(2′-ethoxy-5-((R)-4-(6-ethoxy-2-(trifluoromethyl)-nicotinoyl)-2-ethylpiperazin-1-yl)-[2,3′-bipyridin]-6-yl)-7,10,18-trioxo-14-oxa-2,6,11,17-tetra-azanonadecan-19-yl)-1,4,7,10-tetraazacyclododecane-1,4,7-triyl)triacetic acid [Compound 10]”, the pKi is more than 8.00.
The result for `CCOc1ccc(C(=O)N2CCN(c3ccc(-c4ccccc4OCC)nc3CNCCNCCCOCCOCCOCCOCCNC(=O)CN3CCN(CC(=O)O)CCN(CC(=O)O)CCN(CC(=O)O)CC3)[C@H](CC)C2)c(C(F)(F)F)c1` [Compound 17, (R)-2,2′,2″-(10-(1-(3-(4-(4-ethoxy-2-(trifluoromethyl)benzoyl)-2-ethylpiperazin-1-yl)-6-(2-ethoxyphenyl)pyridin-2-yl)-22-oxo-9,12,15,18-tetraoxa-2,5,21-triazatricosan-23-yl)-1,4,7,10-tetraazacyclododecane-1,4,7-triyl)triacetic acid] reads more than 8.00; that for `CCOc1ccc(C(=O)N2CCN(c3ccc(-c4cccnc4OCC)nc3CNCCCOCCOCCOCCOCCNC(=O)CCC(C(=O)O)N3CCN(CC(=O)O)CCN(CC(=O)O)CCN(CC(=O)O)CC3)[C@H](CC)C2)c(C(F)(F)F)n1` (stereo partly drawn) [Compound 18, 2,2′,2″-(10-(22-carboxy-1-(2′-ethoxy-5-((R)-4-(6-ethoxy-2-(trifluoromethyl)-nicotinoyl)-2-ethylpiperazin-1-yl)-(2,3′-bipyridin]-6-yl)-19-oxo-6,9,12,15-tetraoxa-2,18-diazadocosan-22-yl)-1,4,7,10-tetraazacyclododecane-1,4,7-triyl)triacetic acid], more than 8.00.
Consider `CCOc1ccccc1-c1ncc(C2(C(=O)N[C@@H]3CCN(CCOCCOCCOCCOCCNC(=O)CN4CCN(CC(=O)O)CCN(CC(=O)O)CCN(CC(=O)O)CC4)C3)CCN(c3ccc(C(F)(F)F)cc3C#N)CC2)cc1F` [Compound 9, (R)-2,2′,2″-(10-(17-(3-(1-(2-cyano-4-(trifluoromethyl)phenyl)-4-(6-(2-ethoxy-phenyl)-5-fluoropyridin-3-yl)piperidine-4-carboxamido)pyrrolidin-1-yl)-2-oxo-6,9,12,15-tetra-oxa-3-azaheptadecyl)-1,4,7,10-tetraazacyclododecane-1,4,7-triyl)triacetic acid], for which the pKi was more than 8.00.
The result for `CCOc1ccc(C(=O)N2CCN(c3ccc(-c4cccnc4OCC)nc3CNCCCNC(=O)C[C@H](O)C[C@H](O)CCNC(=O)CN3CCN(CC(=O)O)CCN(CC(=O)O)CCN(CC(=O)O)CC3)[C@H](CC)C2)c(C(F)(F)F)n1` [Compound 6, 2,2′,2″-(10-(2-(((3R,5R)-7-((3-(((2′-ethoxy-5-((R)-4-(6-ethoxy-2-(trifluoromethyl)-nicotinoyl)-2-ethylpiperazin-1-yl)-[2,3′-bipyridin]-6-yl)methyl)amino)propyl)-amino)-3,5-dihydroxy-7-oxoheptyl)amino)-2-oxoethyl)-1,4,7,10-tetraazacyclododecane-1,4,7-triyl)triacetic acid] reads more than 8.00.
The result for `CCOc1ccc(C(=O)N2CCN(c3ccc(-c4cccnc4OCC)nc3CNCCCN(CCOCCOCCOCCNC(=O)CN3CCN(CC(=O)O)CCN(CC(=O)O)CCN(CC(=O)O)CC3)CCOCCOCCOCCNC(=O)CN3CCN(CC(=O)O)CCN(CC(=O)O)CCN(CC(=O)O)CC3)[C@H](CC)C2)c(C(F)(F)F)n1` [^115In complex of Compound 4] reads more than 8.00; that for `CCOc1ccc(C(=O)N2CCN(c3ccc(-c4cccnc4OCC)cc3CNCCNCCCOCCOCCOCCOCCNC(=O)CN3CCN(CC(=O)[O-])CCN(CC(=O)[O-])CCN(CC(=O)[O-])CC3)[C@H](CC)C2)c(C(F)(F)F)n1.[Ga+3]` [^69/71Ga complex of Compoud 15, gallium (R)-2,2′,2″-(10-(1-(2-(4-(6-ethoxy-2-(trifluoromethyl)nicotinoyl)-2-ethylpiperazin-1-yl)-5-(2-ethoxypyridin-3-yl)phenyl)-22-oxo-9,12,15,18-tetraoxa-2,5,21-triazatricosan-23-yl)-1,4,7,10-tetraazacyclododecane-1,4,7-triyl)triacetate], more than 8.00.
In the case of `CCOc1ccc(C(=O)N2CCN(c3ccc(-c4cccnc4OCC)nc3CNCCCNC(=O)[C@@H](N)CC(=O)NCCOCCNC(=O)CN3CCN(CC(=O)O)CCN(CC(=O)O)CCN(CC(=O)O)CC3)[C@H](CC)C2)c(C(F)(F)F)n1` [^115In complex of Compound 5], the pKi is more than 8.00.
Under `CCOc1ccc(C(=O)N2CCN(c3ccc(-c4cccnc4OCC)nc3CNCCCCCCCCCCCCCCCNC(=O)CN3CCN(CC(=O)O)CCN(CC(=O)O)CCN(CC(=O)O)CC3)[C@H](CC)C2)c(C(F)(F)F)n1` [Compound 14, (R)-2,2′,2″-(10-(2-((15-(((2′-ethoxy-5-(4-(6-ethoxy-2-(trifluoromethyl)nicotinoyl)-2-ethylpiperazin-1-yl)-[2,3′-bipyridin]-6-yl)methyl)amino)pentadecyl)amino)-2-oxoethyl)-1,4,7,10-tetraazacyclododecane-1,4,7-triyl)triacetic acid] stands more than 8.00.
With `CCOc1ccc(C(=O)N2CCN(c3ccc(-c4cccnc4OCC)cc3CNCCNCCCOCCOCCOCCOCCNC(=O)CN3CCN(CC(=O)O)CCN(CC(=O)O)CCN(CC(=O)O)CC3)[C@H](CC)C2)c(C(F)(F)F)n1` [Compound 15, (R)-2,2′,2″-(10-(1-(2-(4-(6-ethoxy-2-(trifluoromethyl)nicotinoyl)-2-ethylpiperazin-1-yl)-5-(2-ethoxypyridin-3-yl)phenyl)-22-oxo-9,12,15,18-tetraoxa-2,5,21-triazatricosan-23-yl)-1,4,7,10-tetraazacyclododecane-1,4,7-triyl)triacetic acid], the pKi is more than 8.00.
The result for `CCOc1ccc(C(=O)N2CCN(c3ccc(-c4cccnc4OCC)nc3CNCCCC[C@@H](NC(=O)CN3CCN(CC(=O)O)CCN(CC(=O)O)CCN(CC(=O)O)CC3)C(=O)O)[C@H](CC)C2)c(C(F)(F)F)n1` [^115In complex of Compound 2] reads more than 8.00; that for `CCOc1ccc(C(=O)N2CCN(c3ccc(-c4ccccc4OCC)nc3CNCCCOc3cc(NCCOCCNC(=O)CN4CCN(CC(=O)O)CCN(CC(=O)O)CCN(CC(=O)O)CC4)cc(C(=O)O)c3)[C@H](CC)C2)c(C(F)(F)F)c1` [^115In complex of Compound 3], more than 8.00.
For the compound “(R)-2,2′,2″-(10-(1-(3-(4-(4-ethoxy-2-(trifluoromethyl)benzoyl)-2-ethylpiperazin-1-yl)-6-(2-ethoxyphenyl)pyridin-2-yl)-19-oxo-6,9,12,15-tetraoxa-2,18-diazaicosan-20-yl)-1,4,7,10-tetraazacyclododecane-1,4,7-triyl)triacetic acid [Compound 11]”, the pKi was more than 8.00.
